Assay results reported in patent US6759384B1, “Factor Xa inhibitors” (Aventis Pharmaceuticals Inc., priority 1994, dated 2004).
Counter-ions that a name gives are not always drawn. Like-named read-outs stand apart in the source and are kept apart here. Starred links: 1 amine or outer side, 2 acyl side, 3 side chain; linkers in the order of their positions; H or OH if unused. Non-standard residues stand in square brackets, D forms with d. Residues, ends and D or L forms follow the SMILES beside them. No end group written: not given here. *: point of attachment. X1 = CC(C)CN([C@@H](Cc1ccc(O)cc1)C(=O)[*:2])[*:1]; 2Nal = N[C@@H](Cc1ccc2ccccc2c1)C(=O)O; Chg = N[C@H](C(=O)O)C1CCCCC1; Tfa = O=C(C(F)(F)F)*

Tests used:
factor Xa = conditions: background section; cited from earlier work
[1] = target: T1, human neutrophil elastase (Homo sapiens, UniProt P08246); test: Elastase chromogenic assay; assay type: biochemical; conditions: Table 2
T1 construct: purchased Athens Research and Technology, Inc; Athens Ga
T1 sequence (P08246 30-247 limits assumed): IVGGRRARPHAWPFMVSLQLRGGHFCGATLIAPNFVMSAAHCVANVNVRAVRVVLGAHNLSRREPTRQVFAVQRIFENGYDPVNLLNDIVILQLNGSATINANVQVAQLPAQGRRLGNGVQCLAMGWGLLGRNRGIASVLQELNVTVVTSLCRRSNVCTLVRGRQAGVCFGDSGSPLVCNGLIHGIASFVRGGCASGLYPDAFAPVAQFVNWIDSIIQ
Method: (§1) The ability of a compound of the invention to inhibit factor Xa, thrombin, plasmin, elastase and trypsin was assessed by determining the concentration of YIR peptide that inhibits enzyme activity by 50% (IC50). Purified enzymes were used in chromogenic assays. To determine the inhibition constant, the IC50 value was corrected for competition with substrate using the formula:
(§2) Ki=IC50×(1/{1+((substrate concentration)/substrate Km)})
Tris-Cl, pH 7.4, 300 mM NaCl, 2% (v/v) N-methyl-pyrrolidone, 0.01% (w/v) NaN3 buffer was used for this assay. The IC50 was determined as described in Example XXXVII.a., except that the substrate was succinyl-Ala-Ala-Ala-p-nitroanilide (Calbiochem-Nova Biochem Corp.; San Diego Calif.) and the enzyme was human neutrophil elastase (Athens Research and Technology, Inc.; Athens Ga.). The enzyme concentration was 75 nM and the substrate concentration was 600 μM.

human plasmin = target: T2, human plasmin (Homo sapiens, UniProt P00747); test: Plasmin chromogenic assay; assay type: biochemical; conditions: Table 2
T2 construct: the enzyme was human plasmin (Kabi); purchased Kabi
Method: as §1, §2
TBS-P buffer was used for this assay. The IC50 was determined as described in Example XXXVII.a., except that the substrate was S-2251 ((D)-Val-L-Leu-L-Lys-p-nitroanilide; Kabi) and the enzyme was human plasmin (Kabi). The enzyme concentration was 5 nM and the substrate concentration was 300 uM.

human factor Xa = target: T3, human factor Xa (Homo sapiens, UniProt P00742); test: Factor Xa chromogenic assay; assay type: biochemical
T3 construct: purchased Enzyme Research Laboratories, Inc; South Bend Ind
Method: as §1, §2
(Chen and Prusoff, Biochem. Pharmacol. 22:3099-[…] (1973), which is incorporated herein by reference).
TBS-P buffer (50 mM Tris-Cl, pH 7.8, 200 mM NaCl, 0.05% (w/v) PEG-8000, 0.02% (w/v) NaN3) was used for this assay. The IC50 was determined by combining in appropriate wells of a Costar half-area microtiter plate 25 μl human factor Xa (Enzyme Research Laboratories, Inc.; South Bend Ind.) in TBS-P; 40 μl 10% (v/v) DMSO in TBS-P (uninhibited control) or various concentrations of a peptide to be tested diluted in 10% (v/v) DMSO in TBS-P; and substrate S-2765 (Nα-benzyloxycarbonyl-D-Arg-Gly-L-Arg-p-nitroanilide; Kabi Pharmacia, Inc.; Franklin Ohio) in TBS-P.
The assays were performed by pre-incubating the peptide inhibitor plus enzyme for 10 min, then the assay was initiated by adding substrate to obtain a final volume of 100 μl. The initial velocity of chromogenic substrate hydrolysis was measured by the change in absorbance at 405 nm using a Bio-tek Instruments kinetic plate reader (Ceres UV900HDi) at 25° C. during the linear portion of the time course (usually 1-5 min after addition of substrate). The concentration of inhibitor that caused a 50% decrease in the rate of substrate hydrolysis was predicted by linear regression after plotting the relative rates of hydrolysis (compared to the uninhibited control) versus the log of the peptide concentration. The enzyme concentration was 0.5 nM and substrate concentration was 140 μM.

[2] = Ex vivo dilute prothrombin time assay after iv administration to rats; conditions: rat, in vivo, time at which approximately 50% of the initial anticoagulant activity remains in plasma, read-out: T1/2 Rat ex vivo
Method: (§3) The compounds of the invention were assessed for their ability to inhibit factor Xa activity. Effectiveness of various compounds was assessed by the in vitro prothrombin time (PT) assay using pooled human donor plasma. An ex vivo assay also was used in which plasma was collected at various times after intravenous (iv) administration of a compound to rats and to rabbits or intraduodenal administration to rats and analyzed using the PT assay to determine plasma half-life. The PT assay was initiated with a thromboplastin dilution selected to obtain an extended and highly reproducible coagulation endpoint, referred to as the “dilute PT assay” as described below. Effectiveness of various compounds also was determined using an in vivo rat arteriovenous shunt model of thrombosis.
(§4) Test compound was administered iv either through the tail vein (rat) or ear vein (rabbit) following an approved protocol. One ml blood samples were removed at timed intervals after administration of a test compound from a cannulated carotid artery (rat) or auricular artery (rabbit). After centrifugation to obtain PPP, the plasma was immediately stored on ice or frozen.
(§5) For dilute prothrombin time determination, the plasma was prewarmed and assayed as described above. Percent inhibition was calculated from a thromboplastin dilution curve, which was run with each series of samples, and used to determine the time at which approximately 50% of the initial anticoagulant activity remains in the plasma (T1/2).
Various compounds also were examined for anticoagulant activity using the ex vivo dilute prothrombin time assay following iv bolus administration of various doses in rats. […] The structures of all of the compounds listed in Table 5 were confirmed by MS and AA.

[3] = Ex vivo dilute prothrombin time assay after iv administration to rabbits; conditions: rabbit, in vivo, time at which approximately 50% of the initial anticoagulant activity remains in plasma, read-out: T1/2 Rabbit ex vivo
Method: as §3, §4, §5

[4] = test system: pooled human platelet poor plasma; test: In vitro dilute prothrombin time assay; assay type: biochemical; conditions: concentration giving 50% inhibition of coagulation, dilute PT
Method: The compounds of the invention were assessed for their ability to inhibit factor Xa activity. Effectiveness of various compounds was assessed by the in vitro prothrombin time (PT) assay using pooled human donor plasma. An ex vivo assay also was used in which plasma was collected at various times after intravenous (iv) administration of a compound to rats and to rabbits or intraduodenal administration to rats and analyzed using the PT assay to determine plasma half-life. The PT assay was initiated with a thromboplastin dilution selected to obtain an extended and highly reproducible coagulation endpoint, referred to as the “dilute PT assay” as described below. Effectiveness of various compounds also was determined using an in vivo rat arteriovenous shunt model of thrombosis. […]
Alternatively, the dilute prothrombin time assay was conducted using the “research” mode on an Instrumentation Laboratories (IL) ACL3000-plus automated coagulation instrument (IL; Milan, Italy). […] During the assay, a 50 μl sample (plasma separated by centrifugation) was mixed with 100 μl thromboplastin reagent and nephelometric readings were taken over 169 sec. Coagulation time was determined from the maximal rate of change of light scatter calculated by the instrument. Inhibition is expressed as percent activity as determined by comparison with the calibration curve.

human thrombin = target: T4, human thrombin (Homo sapiens, UniProt P00734); test: Thrombin chromogenic assay; assay type: biochemical; conditions: Table 2
T4 construct: purchased Enzyme Research Laboratories, Inc; South Bend Ind
Method: as §1, §2
TBS-P buffer was used for this assay. The IC50 was determined as described in Example XXXVII.a., except that the substrate was S-2366 (L-PyroGlu-L-Pro-L-Arg-p-nitroanilide; Kabi) and the enzyme was human thrombin (Enzyme Research Laboratories, Inc.; South Bend Ind.). The enzyme concentration was 1 nM and substrate concentration was 175 μM.

[5] = target: T5, bovine pancreatic trypsin (Bos taurus, UniProt P00760); test: Trypsin chromogenic assay; assay type: biochemical; conditions: Table 2; * no significant inhibition at the highest concentration tested
T5 construct: purchased Sigma Type XIII, TPCK treated; host or cells: bovine pancreas
T5 sequence (P00760 24-246): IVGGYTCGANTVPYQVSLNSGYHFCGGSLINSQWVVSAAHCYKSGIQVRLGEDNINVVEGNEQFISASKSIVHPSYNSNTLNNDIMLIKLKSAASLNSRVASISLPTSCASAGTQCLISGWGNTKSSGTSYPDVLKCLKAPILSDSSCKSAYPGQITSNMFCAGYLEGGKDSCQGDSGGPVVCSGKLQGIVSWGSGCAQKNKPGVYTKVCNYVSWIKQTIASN
Method: as §1, §2
TBS-P buffer containing 10 mM CaCl2 was used for this assay. The IC50 determination was determined as described in Example XXXVII.a., except that the substrate was BAPNA (Benzoyl-L-Arg-p-nitroanilide; Sigma Chemical Co.; St. Louis Mo.) and the enzyme was bovine pancreatic trypsin (Type XIII, TPCK treated; Sigma). The enzyme concentration was 50 nM and the substrate concentration was 300 μM.

T3 sequence (P00742 235-488 limits assumed): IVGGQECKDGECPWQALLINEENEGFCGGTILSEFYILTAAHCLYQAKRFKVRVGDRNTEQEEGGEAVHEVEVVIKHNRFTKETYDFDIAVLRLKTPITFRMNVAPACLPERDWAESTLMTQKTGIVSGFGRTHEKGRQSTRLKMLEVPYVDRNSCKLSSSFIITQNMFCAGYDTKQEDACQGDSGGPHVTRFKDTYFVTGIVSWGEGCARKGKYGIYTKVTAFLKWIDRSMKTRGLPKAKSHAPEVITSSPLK
T3 sequence (P00742 41-179 partner limits assumed): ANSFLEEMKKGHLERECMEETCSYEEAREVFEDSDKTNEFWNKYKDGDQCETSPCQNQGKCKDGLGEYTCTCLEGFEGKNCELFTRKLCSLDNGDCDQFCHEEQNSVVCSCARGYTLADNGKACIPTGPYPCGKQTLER
T2 sequence (P00747 581-810 limits assumed): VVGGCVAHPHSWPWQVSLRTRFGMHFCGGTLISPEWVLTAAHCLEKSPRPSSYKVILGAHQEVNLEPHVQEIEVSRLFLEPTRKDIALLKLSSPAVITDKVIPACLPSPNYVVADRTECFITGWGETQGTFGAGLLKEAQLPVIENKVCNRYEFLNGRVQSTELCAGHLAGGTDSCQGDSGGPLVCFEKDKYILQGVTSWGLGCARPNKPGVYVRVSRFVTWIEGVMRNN
T2 sequence (P00747 97-580 partner limits assumed): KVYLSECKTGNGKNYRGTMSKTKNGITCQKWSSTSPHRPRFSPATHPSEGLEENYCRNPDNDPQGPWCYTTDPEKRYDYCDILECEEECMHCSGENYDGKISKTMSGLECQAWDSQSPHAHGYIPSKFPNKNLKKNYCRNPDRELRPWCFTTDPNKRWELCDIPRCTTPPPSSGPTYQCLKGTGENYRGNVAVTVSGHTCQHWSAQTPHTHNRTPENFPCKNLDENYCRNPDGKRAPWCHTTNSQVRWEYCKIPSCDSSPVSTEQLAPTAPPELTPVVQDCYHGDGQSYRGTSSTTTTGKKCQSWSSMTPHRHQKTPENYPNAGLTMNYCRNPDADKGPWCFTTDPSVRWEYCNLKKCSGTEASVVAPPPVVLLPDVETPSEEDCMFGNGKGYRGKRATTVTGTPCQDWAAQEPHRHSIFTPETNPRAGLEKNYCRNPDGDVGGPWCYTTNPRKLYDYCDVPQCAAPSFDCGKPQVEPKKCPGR

Row | Molecule | half-life [2] [min] | half-life [3] [min] | Ki (factor Xa) [nM] | other results
1 | N=C(N)c1ccc(C=C2CCCCC(=Cc3ccc(C(=N)N)cc3)C2=O)cc1 [2,7-bis-(4-amidinobenzylidene)-cycloheptanone, reference compound] |  |  | ~20 | 
2 | CC[C@H](C)[C@H](NC(=O)[C@H](Cc1ccc(O)cc1)N(CC(C)C)C(C)=O)C(=O)N[C@@H](CCCNC(=N)N)C(=O)N[C@@H](CC(C)C)C(=O)N1CCC[C@H]1C(N)=O [Ac-(iBu)Y-I-R-L-P, Ac-(iBu)Tyr-Ile-Arg-Leu-Pro-NH2] (Ac-[X1]IRLP-NH2) |  |  |  | Ki [1]: > 100 µM; Ki (human plasmin): > 200 µM; Ki (human factor Xa; Example XXXVI, read-out: Ki (inhibition of factor Xa activity)): 40 nM
3 | N-alpha-tosyl-Gly-p-amidinophenylalanine methyl ester [TENSTOP, reference compound] |  |  | ~800 | Ki (human thrombin): 2000 nM; Ki [1]: > 200 µM; Ki (human plasmin): > 200 µM; Ki (human factor Xa; Table 2, read-out: Ki Xa): 2000 nM
4 | TAP: tick anticoagulant peptide, isolated from the tick Ornithodoros moubata, 60 amino acids (YNRLCIKPRDWIDECDSNEGGERAYFRNGKGGCDSFWICPEDHTGADYYSSYRDCFNACI; ends and bridges not checked; cysteine pairing not given here; UniProt P17726 1-60, looked up) |  |  | ~0.5 | 
5 | YIRLAAET [Ac-Y-I-R-L-A-A-E-T, Ac-Y-I-R-L-A-A-E-T (SEQ ID NO:9)] |  |  |  | Ki [5]: > 200 µM; Ki (human factor Xa; Table 2, read-out: Ki Xa): 1500 nM

Continued, in another order:

Row | half-life [2] [min] | half-life [3] [min] | Molecule | Ki (factor Xa) [nM] | other results
6 | 6 | 5 | CC(=O)N[C@@H](Cc1ccc2ccccc2c1)C(=O)N[C@H](C(=O)N[C@@H](CCCNC(=N)N)C(=O)N[C@@H](CC(C)C)C(=O)N1CCC[C@H]1C(N)=O)C1CCCCC1 [Ac—Nal(2)—Chg—R—L—P—NH2, Ac-Nal(2)-Chg-Arg-Leu-Pro-NH2] (Ac-[2Nal][Chg]RLP-NH2) |  | EC50 [4]: 140 nM
7 | 5 | 5 | CC(=O)N[C@@H](Cc1ccc(O)cc1)C(=O)N[C@H](C(=O)N[C@@H](CCCNC(=N)N)C(=O)N[C@@H](CC(C)C)C(=O)N1CCC[C@H]1C(N)=O)C1CCCCC1 [Ac—Y—Chg—R—L—P—NH2, Ac-Tyr-Chg-Arg-Leu-Pro-NH2] (Ac-Y[Chg]RLP-NH2) |  | EC50 [4]: 225 nM
8 | 5 | 5 | CC(=O)N[C@@H](Cc1ccc(O)cc1)C(=O)N[C@H](C(=O)N[C@@H](CCCNC(=N)N)C(N)=O)C1CCCCC1 [Ac—Y—Chg—R—NH2] (Ac-Tyr-[Chg]-Arg-NH2) |  | 
9 | 15 | 10 | CC(C)C[C@H](NC(=O)[C@H](CCCNC(=N)N)NC(=O)[C@@H](NC(=O)[C@H](Cc1ccc(O)cc1)N(CC(C)C)C(=O)C(F)(F)F)C1CCCCC1)C(=O)N1CCC[C@H]1C(N)=O [Tfa—(iBu)Y—Chg—R—L—P—NH2, Tfa-(iBu)Tyr-Chg-Arg-Leu-Pro-NH2] (Tfa-[X1][Chg]RLP-NH2) |  | 
